Assay results reported in article PMC11403733, “Asymmetric Dirhodium-Catalyzed Modification of Immunomodulatory Imide Drugs and Their Biological Assessment” (ACS Medicinal Chemistry Letters, 2024).
Where “and” joins values, the source holds several entries; their conditions need not be identical. Equal values may be shown once.

How the values were obtained:
[1] = target: T1, IKZF3 (Aiolos) (Homo sapiens, UniProt Q96SW2+Q9UKT9); assay: HiBiT degradation assay, DF15/HiBiT-IKZF3 KI cells; type: cell-based; conditions: N ≥ 3; for EC50: degradation, 4 hr incubation, top conc 10 uM; for IKZF3 Ymin: depth of degradation (100% = no reduction of protein level, 0% = complete degradation), 4 hr
T1 construct: endogenous in cells; host or cells: DF15 (HiBiT knock-in)
T1 sequence (Q9UKT9 whole entry): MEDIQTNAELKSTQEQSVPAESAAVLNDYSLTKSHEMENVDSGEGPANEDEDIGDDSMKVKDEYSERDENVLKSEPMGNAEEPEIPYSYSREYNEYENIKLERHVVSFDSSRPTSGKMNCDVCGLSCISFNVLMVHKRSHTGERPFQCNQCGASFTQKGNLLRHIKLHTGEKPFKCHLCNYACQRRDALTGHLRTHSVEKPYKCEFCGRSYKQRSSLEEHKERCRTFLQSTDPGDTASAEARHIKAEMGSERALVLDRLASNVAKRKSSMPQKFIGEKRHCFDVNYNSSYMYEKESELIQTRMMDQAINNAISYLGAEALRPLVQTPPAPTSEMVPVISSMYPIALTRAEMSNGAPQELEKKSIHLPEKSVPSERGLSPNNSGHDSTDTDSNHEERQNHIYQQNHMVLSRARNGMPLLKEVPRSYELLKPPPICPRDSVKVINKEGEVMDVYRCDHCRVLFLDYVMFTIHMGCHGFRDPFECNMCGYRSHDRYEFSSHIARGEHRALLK
T1 sequence (Q96SW2 whole entry): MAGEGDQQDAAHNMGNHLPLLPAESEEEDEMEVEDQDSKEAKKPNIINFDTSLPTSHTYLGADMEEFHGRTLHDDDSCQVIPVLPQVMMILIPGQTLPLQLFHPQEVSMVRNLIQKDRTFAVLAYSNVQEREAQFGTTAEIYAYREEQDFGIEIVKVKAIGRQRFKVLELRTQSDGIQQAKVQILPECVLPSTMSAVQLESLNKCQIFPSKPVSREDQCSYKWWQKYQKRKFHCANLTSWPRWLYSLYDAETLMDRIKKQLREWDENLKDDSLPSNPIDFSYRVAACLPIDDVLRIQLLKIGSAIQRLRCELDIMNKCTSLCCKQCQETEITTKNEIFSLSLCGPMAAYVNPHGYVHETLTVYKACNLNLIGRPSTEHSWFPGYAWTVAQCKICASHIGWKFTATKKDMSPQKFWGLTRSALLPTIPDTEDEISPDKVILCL
T1 sequence (Q16531 whole entry partner): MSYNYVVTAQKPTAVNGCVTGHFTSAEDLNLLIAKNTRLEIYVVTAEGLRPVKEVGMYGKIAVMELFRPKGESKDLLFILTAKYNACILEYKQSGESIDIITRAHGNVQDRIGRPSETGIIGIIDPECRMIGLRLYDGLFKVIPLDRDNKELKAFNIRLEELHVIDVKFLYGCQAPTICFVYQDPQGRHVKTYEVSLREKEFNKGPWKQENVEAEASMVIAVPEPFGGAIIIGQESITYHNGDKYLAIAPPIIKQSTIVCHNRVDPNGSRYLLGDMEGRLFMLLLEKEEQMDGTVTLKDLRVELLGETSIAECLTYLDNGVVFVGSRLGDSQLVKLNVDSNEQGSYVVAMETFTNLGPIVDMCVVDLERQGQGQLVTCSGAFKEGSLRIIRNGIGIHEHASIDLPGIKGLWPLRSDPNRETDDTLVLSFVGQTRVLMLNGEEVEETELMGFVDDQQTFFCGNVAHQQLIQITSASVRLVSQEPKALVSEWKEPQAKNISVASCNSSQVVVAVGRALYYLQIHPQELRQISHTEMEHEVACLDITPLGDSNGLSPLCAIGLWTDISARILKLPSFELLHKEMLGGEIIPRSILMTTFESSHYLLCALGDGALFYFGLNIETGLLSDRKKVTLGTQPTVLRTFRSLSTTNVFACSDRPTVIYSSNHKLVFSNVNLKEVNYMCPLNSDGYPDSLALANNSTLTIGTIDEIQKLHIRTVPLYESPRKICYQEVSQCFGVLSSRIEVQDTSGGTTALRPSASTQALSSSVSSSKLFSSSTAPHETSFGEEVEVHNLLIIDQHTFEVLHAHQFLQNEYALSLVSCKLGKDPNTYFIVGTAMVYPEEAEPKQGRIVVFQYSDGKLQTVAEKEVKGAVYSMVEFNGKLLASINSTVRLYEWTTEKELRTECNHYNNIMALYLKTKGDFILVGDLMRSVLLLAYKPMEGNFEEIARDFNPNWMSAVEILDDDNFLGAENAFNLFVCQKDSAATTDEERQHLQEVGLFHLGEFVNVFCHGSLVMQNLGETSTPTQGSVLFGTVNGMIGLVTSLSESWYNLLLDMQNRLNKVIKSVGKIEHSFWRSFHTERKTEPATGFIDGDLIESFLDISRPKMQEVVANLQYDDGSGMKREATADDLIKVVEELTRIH
Method: (§1) Section 6: Assay Protocols
(§2) Fluorescence Resonance Energy Transfer-Based NSD@ PWWP Cereblon Binding Assay. […]
(§3) Compounds for testing were spotted into a 1536 well plate (Greiner Cat#782075). CRBN and Tracer solution were incubated in compound wells for 20 minutes. Detection mix containing Anti6xHis Tb Crytate (CisBio Cat#61HI2TLF) was then added to assay wells for a final 0.5x assay concentration of detection antibody (stock is provided at 400x). Plates were incubated for 30 minutes before being read on Pherastar FSX plate reader using TR-FRET module (Excitation 340nm, Emssion 615/665nm). ePL and HiBiT degradation assays
(§4) DF15 cells overexpressing ePL tagged GSPT1 (DF15/GSPT1 ePL OE) was used to monitor the degradation of GSPT1 induced by experimental compounds. MDS-L cells overexpressing ePL tagged CK1α and GSPT1G575N (MDS-L/CK1α ePL OE_ GSPT1G575N OE) was used to monitor the degradation of CK1α induced by experimental compounds. NCCIT cells with HiBiT tag knocked in at the c-terminus of SALL4 (NCCIT/SALL4-HiBiT KI) was used to monitor the degradation of SALL4 induced by experimental compounds. DF15 cells with HiBiT tag knocked in at the n-terminus of IKZF3 (DF15/HiBiT-IKZF3 KI) was used to monitor the degradation of AIOLOS (IKZF3) induced by experimental compounds. […]
(§5) The cell culture medium recipes, seeding densities and compound incubation time with cells are […]
(§6) Ta r g e t Cell line Cell culture medium Seeding Compound
(§7) (HI) FBS, 1mM sodium pyruvate, 25mM Hepes, 0.1% pluronic acid,
(§8) GSPT1G575N OE ng/mL of human recombinant IL3 […]
(§9) sodium pyruvate, 25mM Hepes, 0.1% pluronic acid, 1X NEAA
(§10) For all degradation assays, compounds were pre-spotted in a 153 6 well plate (Corning 3727) starting at 10uM with 3-fold serial dilution down 11 points in replicates using an Echo 650 series acoustic liquid handler. 5uL/well cells were seeded in the assay ready plate at the density and in […]
(§11) The final DMSO concentration in the cell culture was 0.25%. The plates were equilibrated at room temperature for 30 minutes before putting into a 37 °C CO2 incubator. After appropriate incubation period, plates were retrieved from the incubator and set at room temperature to equilibrate for 30 minutes, before adding ePL or HiBiT detection reagent. For ePL detection, the pre-prepared mixture of EA reagent, lysis buffer, and substrate reagent at ratio 1:1:4 from the DiscoverX InCELL Detection Kit (Eurofins 96-0079L) according to the manufacturer ’s recommendation was added 3ul/well into the plate. Plates were incubated in the dark for 1hr at room temperature before reading using a BMG PheraStar luminescence reader. For HiBiT detection, Nano-Glo HiBiT Lytic Reagent (Promega, N3050) prepared according to the manufacturer ’s recommendation was added 3 uL/well into the plate. Plates were incubated 30 minutes at room temperature in the dark before reading using a BMG PheraStar […]
(§12) To determine EC50 values for degradation, a four parameter logistic model (Sigmoidal Dose-Response Model) (FIT= (A+((B-A)/1+((C/x)^D)))) C is the inflection point (EC50), D is […] , A and B are the low and high limits of the fit respectively) was used to determine the compound’s EC50 value, which is the half maximum effective concentration. In the degradation assays, the Yconst of each compound was calculated by normalizing the lowest point of the fitted curve to the media only control, which is 0%, and the cells treated with DMSO control, which is 100%. All degradation curves were processed and evaluated using Dotmatics.
(§13) Section 7: Biological Data Tables

[2] = target: T2, GSPT1 (Homo sapiens, UniProt P15170+Q96SW2); assay: ePL degradation assay, DF15/GSPT1 ePL OE cells; type: cell-based; conditions: N ≥ 3; for EC50: degradation, 20 hr incubation, top conc 10 uM; for GSPT1 Ymin: depth of degradation (100% = no reduction, 0% = complete degradation), 20 hr
T2 construct: expressed in transfected cells; host or cells: DF15
T2 sequence (P15170 1-637 isoform P15170-3): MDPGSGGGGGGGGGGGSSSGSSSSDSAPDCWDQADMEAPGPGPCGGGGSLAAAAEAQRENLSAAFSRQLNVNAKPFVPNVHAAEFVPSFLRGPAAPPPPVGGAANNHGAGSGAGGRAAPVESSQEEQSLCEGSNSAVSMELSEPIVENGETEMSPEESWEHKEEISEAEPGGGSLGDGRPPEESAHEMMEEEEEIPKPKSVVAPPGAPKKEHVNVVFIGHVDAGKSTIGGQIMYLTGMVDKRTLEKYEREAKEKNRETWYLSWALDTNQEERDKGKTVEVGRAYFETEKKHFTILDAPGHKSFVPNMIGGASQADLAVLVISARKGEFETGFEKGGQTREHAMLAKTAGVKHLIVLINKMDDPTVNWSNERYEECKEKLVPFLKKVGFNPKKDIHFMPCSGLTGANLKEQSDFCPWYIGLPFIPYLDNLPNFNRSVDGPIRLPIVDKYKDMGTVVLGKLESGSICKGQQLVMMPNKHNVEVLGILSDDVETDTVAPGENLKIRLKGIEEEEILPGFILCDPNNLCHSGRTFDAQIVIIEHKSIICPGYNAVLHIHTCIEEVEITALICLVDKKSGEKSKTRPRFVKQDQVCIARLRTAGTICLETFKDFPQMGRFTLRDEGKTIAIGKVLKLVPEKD
T2 sequence (Q96SW2 whole entry): as the sequence (Q96SW2 whole entry) above
T2 sequence (Q16531 whole entry partner): as the sequence (Q16531 whole entry partner) above
Method: as §1, §2, §3, §4, §5, §6, §7, §8, §9, §10, §11, §12, §13

[3] = target: T3, CK1α (Homo sapiens, UniProt P48729+Q96SW2); assay: ePL degradation assay, MDS-L/CK1α ePL OE_GSPT1G575N OE cells; type: cell-based; conditions: for EC50: degradation, 4 hr incubation, top conc 10 uM, N ≥ 3, read-out: CK1a EC50; for CK1a Ymin: depth of degradation (100% = no reduction, 0% = complete degradation), 4 hr, N ≥ 3
T3 construct: expressed in transfected cells; host or cells: MDS-L
T3 sequence (P48729 whole entry): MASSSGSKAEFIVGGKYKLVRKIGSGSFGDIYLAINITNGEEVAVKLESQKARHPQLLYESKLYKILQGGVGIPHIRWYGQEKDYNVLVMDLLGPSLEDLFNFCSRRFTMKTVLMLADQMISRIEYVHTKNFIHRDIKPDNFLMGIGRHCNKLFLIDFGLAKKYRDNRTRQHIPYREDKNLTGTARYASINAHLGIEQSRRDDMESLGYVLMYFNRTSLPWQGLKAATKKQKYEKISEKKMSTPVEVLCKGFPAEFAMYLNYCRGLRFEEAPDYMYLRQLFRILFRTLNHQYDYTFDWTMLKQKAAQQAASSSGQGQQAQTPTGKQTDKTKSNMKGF
T3 sequence (Q96SW2 whole entry): as the sequence (Q96SW2 whole entry) above
T3 sequence (Q16531 whole entry partner): as the sequence (Q16531 whole entry partner) above
Method: as §1, §2, §3, §4, §5, §6, §7, §8, §9, §10, §11, §12, §13

[4] = target: T4, CRBN (Homo sapiens, UniProt Q96SW2); assay: Fluorescence Resonance Energy Transfer-Based Cereblon Binding Assay (CRBN HTRF); conditions: 0.5 nM 6×His-CRBN-DDB1, 20 nM tracer CC0782985, TR-FRET
T4 construct: (CRBN a.a. 1−442, DDB1 a.a); made in house
T4 sequence (Q96SW2 whole entry): as the sequence (Q96SW2 whole entry) above
T4 sequence (Q16531 whole entry partner): as the sequence (Q16531 whole entry partner) above
Method: as §1, §2, §3, §4

[5] = target: T5, SALL4 (Homo sapiens, UniProt Q96SW2+Q9UJQ4); assay: HiBiT degradation assay, NCCIT/SALL4-HiBiT KI cells; type: cell-based; conditions: N ≥ 3; for EC50: degradation, 2 hr incubation, top conc 10 uM; for SALL4 Ymin: depth of degradation (100% = no reduction, 0% = complete degradation), 2 hr
T5 construct: endogenous in cells; host or cells: NCCIT (HiBiT knock-in)
T5 sequence (Q9UJQ4 whole entry): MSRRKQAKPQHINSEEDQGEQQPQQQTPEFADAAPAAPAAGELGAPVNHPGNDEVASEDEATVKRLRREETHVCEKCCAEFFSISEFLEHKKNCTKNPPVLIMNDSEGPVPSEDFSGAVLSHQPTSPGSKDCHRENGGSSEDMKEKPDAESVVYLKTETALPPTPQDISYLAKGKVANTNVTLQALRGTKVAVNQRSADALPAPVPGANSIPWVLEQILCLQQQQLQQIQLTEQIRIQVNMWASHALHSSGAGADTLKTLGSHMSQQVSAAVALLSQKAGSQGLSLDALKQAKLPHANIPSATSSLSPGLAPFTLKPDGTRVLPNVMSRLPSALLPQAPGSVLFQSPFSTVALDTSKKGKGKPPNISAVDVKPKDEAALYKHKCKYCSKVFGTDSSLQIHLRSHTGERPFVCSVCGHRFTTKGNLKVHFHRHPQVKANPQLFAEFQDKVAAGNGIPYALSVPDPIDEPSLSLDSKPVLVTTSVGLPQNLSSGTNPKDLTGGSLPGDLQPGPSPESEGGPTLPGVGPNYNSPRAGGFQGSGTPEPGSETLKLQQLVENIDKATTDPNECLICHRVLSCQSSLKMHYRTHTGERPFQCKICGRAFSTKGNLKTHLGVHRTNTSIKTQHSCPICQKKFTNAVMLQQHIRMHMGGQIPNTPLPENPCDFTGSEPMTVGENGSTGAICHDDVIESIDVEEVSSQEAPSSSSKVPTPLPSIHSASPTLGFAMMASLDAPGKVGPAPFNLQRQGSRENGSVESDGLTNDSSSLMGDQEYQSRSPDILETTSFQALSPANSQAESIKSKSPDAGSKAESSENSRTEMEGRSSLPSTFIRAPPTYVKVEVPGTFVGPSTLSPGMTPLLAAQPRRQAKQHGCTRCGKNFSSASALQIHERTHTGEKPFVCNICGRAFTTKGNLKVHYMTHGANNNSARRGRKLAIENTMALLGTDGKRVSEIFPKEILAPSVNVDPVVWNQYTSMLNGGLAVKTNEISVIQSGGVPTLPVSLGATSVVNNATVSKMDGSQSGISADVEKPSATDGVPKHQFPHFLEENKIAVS
T5 sequence (Q96SW2 whole entry): as the sequence (Q96SW2 whole entry) above
T5 sequence (Q16531 whole entry partner): as the sequence (Q16531 whole entry partner) above
Method: as §1, §2, §3, §4, §5, §6, §7, §8, §9, §10, §11, §12, §13

Row | SMILES | EC50 [1] | EC50 [2] | GSPT1 Ymin [2] | EC50 [3] | CK1a Ymin [3] | IC50 [4] | EC50 [5] | SALL4 Ymin [5] | IKZF3 Ymin [1]
1 | O=C1CCC(N2Cc3c(cccc3[C@@H]3C[C@]3(C(=O)OCC(Cl)(Cl)Cl)c3ccc(Br)cc3)C2=O)C(=O)N1 (some centres unmarked) [Compound 13a] | > 10 µM and 1.86 µM | > 10 µM | 92 ± 7.8% | > 10 µM | 87 ± 0.55% | 0.66 µM | > 10 µM | 85 ± 7.3% | 
2 | O=C1CCC(N2Cc3c(cccc3[C@H]3C[C@@]3(C(=O)OCC(Cl)(Cl)Cl)c3ccc(Br)cc3)C2=O)C(=O)N1 (some centres unmarked) [Compound 13b] | > 10 µM | > 10 µM | 99 ± 2.2% | > 10 µM | 90 ± 7.1% | 2.4 µM | > 10 µM | 97 ± 3.1% | 97 ± 4.9%
3 | O=C1CCC(N2C(=O)c3cccc([C@@H]4C[C@]4(C(=O)OCC(Cl)(Cl)Cl)c4ccc(Br)cc4)c3C2=O)C(=O)N1 (some centres unmarked) [Compound 14a] | > 10 µM | > 10 µM | 91 ± 16% | > 10 µM | 92 ± 3.8% | > 10 µM | > 10 µM | 91 ± 8.0% | 89 ± 3.2%
4 | O=C1CCC(N2C(=O)c3cccc([C@H]4C[C@@]4(C(=O)OCC(Cl)(Cl)Cl)c4ccc(Br)cc4)c3C2=O)C(=O)N1 (some centres unmarked) [Compound 14b] | > 10 µM | > 10 µM | 87 ± 11% | > 10 µM | 94 ± 5.1% | 7.9 µM | > 10 µM | 87 ± 13% | 
5 | O=C1CCC(N2Cc3cc([C@@H]4C[C@]4(C(=O)OCC(Cl)(Cl)Cl)c4ccc(Br)cc4)ccc3C2=O)C(=O)N1 (some centres unmarked) [Compound 15a] | > 10 µM | > 10 µM | 96 ± 7.8% | > 10 µM |  | 0.39 µM | > 10 µM | 99 ± 1.2% | 100 ± 4.6%
6 | O=C1CCC(N2Cc3cc([C@H]4C[C@@]4(C(=O)OCC(Cl)(Cl)Cl)c4ccc(Br)cc4)ccc3C2=O)C(=O)N1 (some centres unmarked) [Compound 15b] | > 10 µM | > 10 µM | 83 ± 7.0% | 0.22 ± 0.089 µM |  | 1.3 µM | 0.16 ± 0.05 µM | 67 ± 5.4% | 89 ± 5.0%
7 | O=C1CCC(N2C(=O)c3ccc([C@@H]4C[C@]4(C(=O)OCC(Cl)(Cl)Cl)c4ccc(Br)cc4)cc3C2=O)C(=O)N1 (some centres unmarked) [Compound 16a] | > 10 µM | > 10 µM |  | > 10 µM | 94 ± 9.9% | 5.3 µM | > 10 µM | 92 ± 8.2% | 94 ± 8.3%
8 | O=C1CCC(N2C(=O)c3ccc([C@H]4C[C@@]4(C(=O)OCC(Cl)(Cl)Cl)c4ccc(Br)cc4)cc3C2=O)C(=O)N1 (some centres unmarked) [Compound 16b] | > 10 µM | > 10 µM and 3.1 µM |  | > 10 µM | 85 ± 4.1% | > 10 µM | 0.41 ± 0.16 µM | 60 ± 6.1% | 97 ± 3.6%
9 | O=C1CCC(N2Cc3ccc([C@@H]4C[C@]4(C(=O)OCC(Cl)(Cl)Cl)c4ccc(Br)cc4)cc3C2=O)C(=O)N1 (some centres unmarked) [Compound 17a] | > 10 µM | > 10 µM | 95 ± 5.4% | > 10 µM | 98 ± 12% | 2.1 µM | > 10 µM | 97 ± 2.2% | 95 ± 7.6%
10 | O=C1CCC(N2Cc3ccc([C@H]4C[C@@]4(C(=O)OCC(Cl)(Cl)Cl)c4ccc(Br)cc4)cc3C2=O)C(=O)N1 (some centres unmarked) [Compound 17b] | > 10 µM | > 10 µM | 93 ± 5.8% | > 10 µM | 96 ± 12% | 2.5 µM | > 10 µM | 96 ± 3.1% | 89 ± 6.5%
11 | O=C1CCC(N2Cc3cccc([C@@H]4C[C@]4(C(=O)OCC(Cl)(Cl)Cl)c4ccc(Br)cc4)c3C2=O)C(=O)N1 (some centres unmarked) [Compound 18a] | > 10 µM | > 10 µM | 87 ± 6.5% | > 10 µM | 89 ± 1.7% | > 10 µM | > 10 µM | 93 ± 3.8% | 91 ± 0.6%
12 | O=C1CCC(N2Cc3cccc([C@H]4C[C@@]4(C(=O)OCC(Cl)(Cl)Cl)c4ccc(Br)cc4)c3C2=O)C(=O)N1 (some centres unmarked) [Compound 18b] | > 10 µM | > 10 µM | 83 ± 15% | > 10 µM | 91 ± 7.1% | > 10 µM | > 10 µM | 96 ± 5.4% | 96 ± 5.7%
13 | O=C1CCC(N2Cc3c(cccc3C3=C[C@]3(C(=O)OCC(Cl)(Cl)Cl)c3ccc(Br)cc3)C2=O)C(=O)N1 (some centres unmarked) [Compound 19a] | 0.012 µM | 0.17 ± 0.13 µM | 64 ± 8.7% | 0.17 ± 0.18 µM | 64 ± 4.3% | 0.16 µM | 0.019 ± 0.01 µM | 23 ± 4.5% | 
14 | O=C1CCC(N2Cc3c(cccc3C3=C[C@@]3(C(=O)OCC(Cl)(Cl)Cl)c3ccc(Br)cc3)C2=O)C(=O)N1 (some centres unmarked) [Compound 19b] | 0.11 ± 0.05 µM | 0.55 ± 0.47 µM | 66 ± 5.5% | 1.5 ± 1.1 µM | 60 ± 7.4% | 0.35 µM | 0.17 ± 0.06 µM | 35 ± 5.9% | 69 ± 3.3% and 69%
15 | O=C1CCC(N2C(=O)c3cccc(C4=C[C@]4(C(=O)OCC(Cl)(Cl)Cl)c4ccc(Br)cc4)c3C2=O)C(=O)N1 (some centres unmarked) [Compound 20a] | 0.9 ± 0.18 µM | 4.3 ± 1.9 µM | 12 ± 13% | 1.5 ± 0.94 µM | 56 ± 14% | 4.6 µM | 0.56 ± 0.27 µM | 34 ± 7.4% | 40 ± 2.2%
16 | O=C1CCC(N2C(=O)c3cccc(C4=C[C@@]4(C(=O)OCC(Cl)(Cl)Cl)c4ccc(Br)cc4)c3C2=O)C(=O)N1 (some centres unmarked) [Compound 20b] | 3.7 µM and 3.67 µM | 5.1 ± 1.4 µM | 17 ± 13% | 2.1 ± 1.3 µM | 54 ± 8.9% |  | 2.8 ± 1.6 µM | 57 ±7.7% | 10 ± 8.2% and 10%
17 | O=C1CCC(N2C(=O)c3ccc(C4=C[C@@]4(C(=O)OCC(Cl)(Cl)Cl)c4ccc(Br)cc4)cc3C2=O)C(=O)N1 (some centres unmarked) [Compound 22b] | 0.31 ± 0.11 µM |  |  | 1.6 ± 0.71 µM | 55 ± 39% | 7.8 µM | 2.4 ± 1.7 µM | 58 ± 3.2% | 71 ± 9.7%
